# In patent US7671019B2, “3-deoxyglucosone and skin” (Dynamis Therapeutics, Inc., priority 2002, dated 2010):
# “And” between values parts separate entries of the source, which are not always exact repeats. Equal values may be shown once.
# Key:
# [1] = biological target: T1, Calf skin collagen Type 1 (Bos taurus, UniProt P02453+P02465); experiment: 3DG-induced collagen crosslinking, CNBr digestion and SDS-PAGE; assay type: biochemical; conditions: 37° C., 24 hours
# T1 construct: Calf skin collagen Type 1 (1.3 mg; Sigma); purchased Sigma; host or cells: calf skin (tissue-derived)
# Protocol: Collagen type I was treated with 3DG in the presence or absence of arginine. The samples were subjected to cyanogen bromide (CNBr) digestion, electrophoresed on a 16.5% SDS Tris-tricine gel, and then the gels were processed using silver stain techniques to visualize the proteins. Lane 1 contains molecular weight marker standards. Lanes 2 and 5 contain 10 and 20 μl of the collagen mixture following CNBr digestion. Lanes 3 and 6 contain the collagen mixture treated with 3DG and then digested with CNBr, and loaded at 10 and 20 μl, respectively. Lanes 4 and 7 contain the mixture of collagen incubated with 5 mM 3DG and 10 mM arginine and then digested with CNBr, and loaded at 10 and 20 μl, respectively.
# Collagen I was incubated in the presence or absence of 3DG in vitro. Calf skin collagen Type 1 (1.3 mg; Sigma) was incubated in 20 mM Na-phosphate buffer, pH 7.25, either alone, with 5 mM 3DG, or with 5 mM 3DG plus 10 mM arginine, in a total volume of 1 ml at 37° C. for 24 hours and then frozen and lyophilized. The residue was dissolved in 0.5 ml of 70% formic acid and cyanogen bromide was added (20:1, w/w). This solution was incubated at 30° C. for 18 hours. […] The extent of collagen crosslinking was determined by applying equal volumes of sample and analyzing by SDS-PAGE electrophoresis (16.5% Tris-tricine gel), as determined by the effects of 3DG on the migration of collagen.
# 3DG = experiment: Plasma 3DG levels in diabetic and non-diabetic rats treated with 3-O-methyl sorbitollysine; assay type: in vivo; conditions: 50 mg/kg injections, within one week
# Protocol: A cohort of twelve diabetic rats was divided into two groups of six. The first group received saline-only injections, and the second received injections of 3-O-methyl sorbitollysine (50 mg/kg body weight) in saline solution. The same procedure was conducted on a cohort of twelve non-diabetic rats.
# [2] = Locus of 3-O-methyl sorbitollysine uptake in vivo (tissue, urine, plasma analysis); set-up: species or system rats
# Protocol: Six rats were injected intraperitoneally with […] (4.4 mg) of 3-O-methyl sorbitollysine. Urine was collected for 3 hours, after which the rats were sacrificed. The tissues to be analyzed were removed and freeze clamped in liquid nitrogen. Perchloric acid extracts of the tissues were used for metabolite analysis. The tissues examined were taken from the brain, heart, muscle, sciatic nerve, spleen, pancreas, liver, and kidney. Plasma was also analyzed.
# [3] = Skin elasticity (vacuum pull needed to displace skin) in STZ-diabetic and normal rats; assay type: in vivo; conditions: 50 mg/kg daily subcutaneous, eight weeks
# Protocol: Experiments were performed to determine the effects of DYN 12 on the loss of skin elasticity associated with diabetes. To this end, two groups of STZ-diabetic rats and two groups of normal rats were subjected to treatment with DYN 12 or saline. One group of STZ-diabetic rats (n=9) received daily subcutaneous injections of DYN 12 at 50 mg/kg for eight weeks, as did one group of normal rats (n=6). A group of control diabetic rats (n=10) and a group of normal rats (n=6) received saline instead of DYN 12. One rat was removed from the diabetic DYN 12 group after 2 weeks because its blood glucose readings were inconsistent (too low) with other diabetic rats.
# A non-invasive procedure based on CyberDERM, Inc. technology utilizing a skin elasticity measurement device was used to test the effects of DYN 12 treatment on skin elasticity. The procedure provides for non-invasive measurement of skin elasticity based upon the amount of vacuum pull required to displace skin. A suction cup probe is adhered to an area of shaved skin in order to form an airtight seal. Then, a vacuum is applied to the area of the skin inside the suction cup until the skin is displaced past a sensor located inside the probe. Accordingly, the more pressure that is required to displace the skin, the less elastic the skin is.
# [4] = Muscle strength of alert diabetic rats; assay type: in vivo; conditions: measured while alert, preliminary data
# Text: The present invention also encompasses methods for prevention of hair loss associated with or mediated by loss of microcirculation and/or loss of neuro-innervation in populations of aging, sclerodermic and/or in diabetic individuals. This is because 3DG is a known precursor to the formation of AGEs which are known to be causally connected to the development of neuropathy. […] This supports the concept that maintenance of nerve conduction and microcirculation that supports nerve innervation is deleteriously affected not only by AGEs, but also 3DG. Similarly, where 3DG would cause blockage of the microcirculation that supports nerve innervation of the hair follicle, the hair follicle will atrophy and die, as is the case in neuropathy.Accordingly, the present invention includes methods for preventing hair loss, where such hair loss is associated with or mediated by the presence of 3DG in the skin proximal to a hair follicle/shaft.
# Skin elasticity measurements were also taken on the test subjects as described above, but without sedating the test animals before measurement. FIG. 15 illustrates skin elasticity measurements taken on the hind leg of the test subjects while the subjects were alert and being restrained by a technician.
# In these experiments, the animals were fiercely fighting restraint and the results are different.
# mouse mesangial cells = experiment: Type IV collagen production in kidney cells in vitro; assay type: cell-based
# Protocol: Type IV collagen production was measured in mouse mesangial cells. Controls (grown with […]) produced 300 ng of Type IV collagen per 10,000 cells, whereas fructoselysine treated cells (5 or 10 mM fructoselysine with 10 mM glucose) produced 560 and 1100 ng/10,000 cells.
# [5] = set-up: species or system rats; conditions: rat, in vivo
# Protocol: Two rats were injected daily with 5 μmols of either FL or mannitol (used as a control) for 5 days. The animals were sacrificed and the kidneys removed and dissected into the cortex and medulla. Tissues were homogenized in 5 volumes of 50 mM Tris-HCl containing 150 mM KCl, 15 mM MgCl2 and 5 mM DTT, pH 7.5. Cellular debris was removed by centrifugation at 10,000×g for 15 minutes, and the supernatant was then centrifuged at 150,000×g for 70 minutes. The soluble proteins were analyzed by SDS PAGE on 12% polyacrylamide gels as well as on 4-15 and 10-20% gradient gels.
# [6] = set-up: species or system human; conditions: in vivo
# Protocol: Volunteers spent two days on a fructoselysine-free diet and then consumed 22.5 g of the food product prepared as described herein, thus effectively receiving a 2 gram dose of fructoselysine. Urine was collected at 2 hour intervals for 14 hours and a final collection was made at 24 hours. FL was measured by HPLC with a Waters 996 diode Array using a Waters C18 Free Amino Acid column at 46° C. and a gradient elution system of acetonitrile-methyl alcohol-water (45:15:40) into acetonitrile-sodium acetate-water (6:2:92) at 1 ml/min. Quantitation employed an internal standard of meglumine. 3DF was measured by HPLC after deionization of the sample. Analyses were performed on a Dionex DX-500 HPLC system employing a PA1 column (Dionex) and eluting with 32 mM sodium hydroxide at 1 ml/min. Quantitation was performed from standard curves obtained daily with synthetic 3DF. 3DG was measured by GC-MS after deionization of the sample. 3DG was derivatized with a 10-fold excess of diaminonaphthalene in PBS. Ethyl acetate extraction gave a salt free fraction which was converted to the trimethyl silyl ethers with Tri-Sil (Pierce). Analysis was performed on a Hewlett-Packard 5890 selected ion monitoring GC-MS system. […] Quantitation of 3DG employed selected ion monitoring using an internal standard of U-13C-3DG.
# T1 sequence (P02453 162-1217 limits assumed): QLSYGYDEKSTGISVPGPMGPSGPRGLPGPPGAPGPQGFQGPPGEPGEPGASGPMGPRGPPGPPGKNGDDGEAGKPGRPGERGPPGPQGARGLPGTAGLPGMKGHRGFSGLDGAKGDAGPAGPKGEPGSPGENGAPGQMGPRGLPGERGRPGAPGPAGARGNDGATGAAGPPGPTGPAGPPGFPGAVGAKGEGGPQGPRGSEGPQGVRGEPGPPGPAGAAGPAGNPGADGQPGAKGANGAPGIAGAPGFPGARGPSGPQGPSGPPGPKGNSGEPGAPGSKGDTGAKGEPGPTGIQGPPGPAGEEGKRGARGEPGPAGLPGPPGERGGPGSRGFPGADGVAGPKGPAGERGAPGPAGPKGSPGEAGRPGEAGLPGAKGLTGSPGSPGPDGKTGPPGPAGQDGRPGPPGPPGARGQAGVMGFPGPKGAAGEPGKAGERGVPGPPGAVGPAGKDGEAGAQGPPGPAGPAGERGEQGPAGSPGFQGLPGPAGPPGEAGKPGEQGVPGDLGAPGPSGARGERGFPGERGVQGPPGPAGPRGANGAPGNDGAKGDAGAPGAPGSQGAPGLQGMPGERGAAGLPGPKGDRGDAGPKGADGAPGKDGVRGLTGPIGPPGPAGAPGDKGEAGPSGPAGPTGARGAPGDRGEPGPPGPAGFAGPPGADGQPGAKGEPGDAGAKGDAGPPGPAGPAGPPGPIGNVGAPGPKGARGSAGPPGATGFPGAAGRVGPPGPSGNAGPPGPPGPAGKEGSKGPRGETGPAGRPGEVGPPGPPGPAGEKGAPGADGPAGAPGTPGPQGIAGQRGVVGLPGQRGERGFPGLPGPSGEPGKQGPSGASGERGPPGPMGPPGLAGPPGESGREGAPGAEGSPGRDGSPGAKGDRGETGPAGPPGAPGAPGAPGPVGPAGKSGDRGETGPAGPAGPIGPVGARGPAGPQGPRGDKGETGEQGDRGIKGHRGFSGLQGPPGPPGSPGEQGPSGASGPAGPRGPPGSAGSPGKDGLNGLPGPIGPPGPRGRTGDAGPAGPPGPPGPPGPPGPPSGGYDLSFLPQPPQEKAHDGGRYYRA
# T1 sequence (P02465 80-1117 limits assumed): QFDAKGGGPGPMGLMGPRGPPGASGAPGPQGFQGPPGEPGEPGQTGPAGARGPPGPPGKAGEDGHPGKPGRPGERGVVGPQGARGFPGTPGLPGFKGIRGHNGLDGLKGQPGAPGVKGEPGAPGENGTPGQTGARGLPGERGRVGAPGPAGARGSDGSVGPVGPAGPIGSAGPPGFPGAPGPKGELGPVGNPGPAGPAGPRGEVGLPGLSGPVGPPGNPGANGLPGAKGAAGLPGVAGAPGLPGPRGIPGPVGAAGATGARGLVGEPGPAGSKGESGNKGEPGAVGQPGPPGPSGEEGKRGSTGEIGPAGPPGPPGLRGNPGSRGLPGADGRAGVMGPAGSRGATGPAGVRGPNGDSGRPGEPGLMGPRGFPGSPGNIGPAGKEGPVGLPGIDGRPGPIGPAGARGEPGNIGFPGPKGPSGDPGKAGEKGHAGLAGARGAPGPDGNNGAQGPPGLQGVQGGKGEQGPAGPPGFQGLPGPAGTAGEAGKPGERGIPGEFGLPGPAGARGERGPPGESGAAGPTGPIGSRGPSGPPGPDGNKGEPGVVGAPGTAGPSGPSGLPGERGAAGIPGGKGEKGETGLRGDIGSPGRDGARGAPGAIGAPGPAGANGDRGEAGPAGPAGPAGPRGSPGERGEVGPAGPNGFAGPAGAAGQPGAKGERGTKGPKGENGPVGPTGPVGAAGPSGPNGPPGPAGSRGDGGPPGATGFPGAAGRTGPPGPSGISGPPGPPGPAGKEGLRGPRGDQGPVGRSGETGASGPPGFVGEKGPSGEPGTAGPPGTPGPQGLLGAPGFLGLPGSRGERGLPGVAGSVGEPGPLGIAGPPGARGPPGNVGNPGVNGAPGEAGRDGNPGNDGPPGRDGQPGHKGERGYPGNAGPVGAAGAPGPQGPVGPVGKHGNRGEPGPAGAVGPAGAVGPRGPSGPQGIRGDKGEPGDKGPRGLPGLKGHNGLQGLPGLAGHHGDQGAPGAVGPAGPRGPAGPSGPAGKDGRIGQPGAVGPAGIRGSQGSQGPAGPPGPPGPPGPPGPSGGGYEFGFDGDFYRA
smiles,measurement,setting,value
"O=CC(=O)C[C@H](O)[C@H](O)CO [3DG, 3-deoxyglucosone]",collagen crosslinking (migration on SDS-PAGE),[1]; 5 mM 3DG,caused the collagen to migrate as if it had a higher molecular weight
"COC(C(O)CNCCCCC(N)C(=O)O)C(O)C(O)CO (stereo not drawn) [DYN 12, 3-O-methyl sorbitollysine]",plasma 3DG level,3DG; Diabetic rats,0.44 ± 0.10 µM
same,plasma 3DG level,3DG; Non-diabetic rats,0.13 ± 0.02 µM
same,compound contained in plasma,[2]; 3 hours after i.p. injection,plasma did not
same,% 3OMeSL recovered (injected dose recovered from urine and kidney),"[2]; individual rats, urine plus kidneys, 3 hours, listed as 3OMeSL",91.5% and 38.8% and 96.4% and 61.2% and 53.0% and 53.3%
same,amount of pressure needed to displace the skin,[3],3.2±1.2 kPA
same,muscle strength vs diabetic rats not so treated,[4],stronger muscle strength
N=C(N)NCCC[C@H](N)C(=O)O [arginine],inhibition of 3DG induced collagen crosslinking (high molecular weight bands),[1]; 5 mM 3DG plus 10 mM arginine,fewer high molecular bands
"N[C@@H](CCCCNCC(=O)[C@@H](O)[C@H](O)[C@H](O)CO)C(=O)O [fructoselysine, 1-deoxy-1-(e-aminolysine)-fructose]",Type IV collagen produced,mouse mesangial cells; 5 mM fructoselysine with 10 mM glucose,"560 ng/10,000 cells"
same,Type IV collagen produced,mouse mesangial cells; 10 mM fructoselysine with 10 mM glucose,"1100 ng/10,000 cells"
same,soluble kidney proteins on SDS PAGE vs mannitol-injected animal,[5],lower molecular weight bands were missing or visually reduced
same,time of peak 3DF excretion in urine after the FL bolus,[6],about 4 hours
